In PubChem BioAssay (NCI):
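Method: 48-hour compound exposure of cells in 96-well plates, five concentrations, linear interpolation of endpoints. GI50: concentration for 50% inhibition of growth. TGI is the concentration that stops growth completely.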

Tests used:
Test in all cases: NCI-60 cell line screen, 48 h
[1] = test system: A549 NSCLC
[2] = test system: CCRF-CEM leukemia
[3] = test system: DU-145 prostate
[4] = test system: HCC-2998 colon
[5] = test system: HOP-62 NSCLC
[6] = test system: IGROV1 ovarian
[7] = test system: KM12 colon
[8] = test system: RPMI-8226 leukemia
[9] = test system: CAKI-1 renal
[10] = test system: HOP-92 NSCLC

SMILES	TGI [1]	TGI [2]	TGI [3]	TGI [4]	TGI [5]	TGI [6]	TGI [7]	TGI [8]	GI50 [1]	GI50 [9]	TGI [9]	GI50 [2]	GI50 [3]	GI50 [4]	GI50 [5]	GI50 [6]	GI50 [7]	GI50 [8]	TGI [10]	GI50 [10]
CS(=O)(=O)CC(=O)c1ccccc1	> 100 µM	> 100 µM	> 100 µM	> 100 µM	> 100 µM	> 100 µM	> 100 µM	> 100 µM												
O=C1OCC2=C1C(c1ccc(Cl)c(Cl)c1)c1cc3c(cc1N2CCO)CCC3 (configuration not stated)	8.04 µM	13.6 µM	6.56 µM	4.29 µM	9.26 µM	17.8 µM	6.57 µM	15.1 µM	0.195 µM	0.145 µM	7.89 µM	0.257 µM	0.203 µM	0.418 µM	0.229 µM	0.555 µM	0.181 µM	0.237 µM		
CC(=O)[CH-]C(=O)c1ccccc1.CC(=O)[CH-]C(=O)c1ccccc1.C[C@]12CCC(=O)C=C1CC[C@@H]1C2CC[C@@]2(C)C1CC[C@@H]2[O-].C[C@]12CCC(=O)C=C1CC[C@@H]1C2CC[C@@]2(C)C1CC[C@@H]2[O-].Cl.[Ti+4] (some centres not stated)	43.9 µM	> 100 µM		42.2 µM	59.9 µM	46.4 µM	66.2 µM	> 100 µM	18.4 µM	13.8 µM	46.4 µM	23.8 µM		21.8 µM	20.6 µM	21.8 µM	20.3 µM	18.8 µM		
Cc1ccccc1-n1c2nc(=O)n(C)c(=O)c-2nc2ccccc21	35.4 µM	40.4 µM		24.2 µM	> 100 µM	37.9 µM	33.5 µM	44.9 µM			48.9 µM									
NCOC(=O)Cc1ccc(Br)cc1	> 100 µM	> 100 µM	> 100 µM		> 100 µM	> 100 µM		> 100 µM											> 100 µM	
COc1ccc(C2=NN(C(=O)c3cc(OC)c(OC)c(OC)c3)C(c3ccc(N(C)C)cc3)C2)cc1 (configuration not stated)	> 100 µM	> 27.1 µM	> 23.7 µM	2.69 µM		> 100 µM	> 100 µM	> 20 µM	1.12 µM			1.8 µM	1.74 µM	0.357 µM	0.57 µM	0.739 µM	0.46 µM	0.663 µM	> 100 µM	0.886 µM
Cc1ccc(NC(=O)/C(Cl)=C(/Cl)C(=O)O)cc1	> 100 µM	5.75 µM		34.3 µM	> 100 µM	61.1 µM	34.6 µM	49.8 µM			31.1 µM								32.6 µM	
COc1cc(-c2c(C#N)c(N)nc(N3CCOCC3)c2C#N)cc(OC)c1OC	> 100 µM	> 100 µM	> 100 µM		> 100 µM	> 100 µM	> 100 µM	> 100 µM	> 100 µM	> 100 µM	> 100 µM	> 100 µM	> 100 µM		30.9 µM	92.1 µM	> 100 µM	> 100 µM	> 100 µM	35.9 µM
NCCNCc1c2ccccc2c(CNCCN)c2ccccc12	38.7 µM	86.2 µM		23.3 µM	69.3 µM	> 100 µM	62.6 µM												45.9 µM	
CCCCCCCCn1ccc2cc(NC(=O)Cn3cc(CN4CCCCC4)nn3)ccc21	4.57 µM	7.74 µM	14.4 µM	3.28 µM	3.75 µM	3.97 µM	5 µM		1.99 µM	1.52 µM	2.99 µM	2.01 µM	4.1 µM	1.66 µM	1.89 µM	1.88 µM	2.23 µM		2.21 µM	0.601 µM
O=C1CCSC2=C1SCc1sccc12	> 100 µM	> 100 µM		> 100 µM	> 100 µM	> 100 µM	> 100 µM	> 100 µM			> 100 µM								> 100 µM	
Cc1ccc2c(c1)S(=O)(=O)c1ccc3ccccc3c1N2	> 100 µM	> 100 µM	> 100 µM	> 100 µM	> 100 µM	> 100 µM	> 100 µM				> 100 µM								> 100 µM	
CN1CCN(C)C12C=CC=CC21CC1	> 100 µM	> 100 µM		> 100 µM	> 100 µM	> 100 µM	> 100 µM	> 100 µM			> 100 µM								> 100 µM	
CCNC(=O)O/N=C1\CCC2[C@@H]3CC=C4C[C@@H](OC5CCCCO5)CC[C@]4(C)C3CC[C@]12C (some centres not stated)	64.2 µM			8.51 µM	> 100 µM	> 100 µM	17 µM	4.8 µM			6.19 µM								7.34 µM	
CC(C)(C)CC(N)=O	> 100 µM	> 100 µM	> 100 µM	> 100 µM	> 100 µM	> 100 µM	> 100 µM				> 100 µM								> 100 µM	
CC1(c2ccccc2)CC(c2cccc([N+](=O)[O-])c2)=NO1 (configuration not stated)	> 100 µM			> 100 µM	> 100 µM	> 100 µM	> 100 µM	> 100 µM											> 100 µM	
CC#CC1C2CCCC1(CSc1ccccc1)NC(=O)O2 (configuration not stated)	> 100 µM			> 100 µM	> 100 µM	> 100 µM	> 100 µM	> 100 µM			> 100 µM								> 100 µM	
CC1=CC(N2C(=O)C(C)=CC2O)NC1=O (configuration not stated)	> 100 µM			> 100 µM	> 100 µM		> 100 µM				> 100 µM								> 100 µM	
c1ccc2c(c1)N=C(c1cccc3ccccc13)CC(c1ccc3c(c1)OCO3)S2 (configuration not stated)	> 100 µM	> 100 µM		> 100 µM	> 100 µM	> 100 µM	> 100 µM				> 100 µM									
C=C(C(=C)P(=S)(c1ccccc1)c1ccccc1)P(=S)(c1ccccc1)c1ccccc1	> 100 µM	> 100 µM		> 100 µM	> 100 µM	> 100 µM	> 100 µM	> 100 µM			> 100 µM								> 100 µM	
